Results as given in US20200080053A1, “USE OF PEPTIDE COMPOUNDS FOR PROMOTING SURVIVAL, GROWTH AND CELL DIFFERENTIATION” (Axoltis Pharma, priority 2016, published 2020).
Square brackets hold non-standard residues; d marks the D form. Ends that are not written are not given here. Abu = CC[C@H](N)C(=O)O

Legend:
Assay type in all cases: cell-based
[1] = system: human mesenchymal stem cells (hMSC); assay: Cell proliferation of hMSCs depending on the culture conditions; details: for number of MSC: add-on of ATRA (from J5); for effect on cell proliferation (number of MSCs): whatever the conditions / FBS concentration (2% or 10% FBS)
Text: Adult human bone marrow mononuclear cells Ficoll-extracted from two donors were obtained from Lonza. Cells were passaged once a week. The human mesenchymal stem cells (hMSC) were selected by plastic adherence and expanded by plating 50 000 cells/cm^2 in Modified Eagle Medium Alpha (MEMalpha, MacoPharma) supplemented with 10% Fetal Bovine Serum (FBS, PAA Laboratoires) and 0.1% Penicilline/Streptomycine (P/S, Lonza). The culture medium was changed after 3 days and then every day. After 2 to 5 weeks of culture at 37° C. in a humid environment and under 5% CO2, hMSC were harvested by trypsinization. The phenotype was confirmed by FACS analysis (BD Bioscience, BD LSR II) with CD73, CD90 and CD105 (positive), as well as CD34 and CD45 (negative) (Table 1).
(§1) To investigate the neural differentiation capacity of the peptides, 25 cm^2 flasks and 12-wells culture plates were coated with sterile aqueous solutions of either NX210 or NS640 at a concentration of 80 μg/cm^2. Coatings were carried out at 37° C. and 5% CO2 over-night prior to cell plating.
On Day 0 (D0), hMSC were seeded at a concentration of 3,000 cells/cm^2 in pre-coated 25 cm^2 flasks or 12-well culture plates in complete medium and culture was placed at 37° C. in a humid environment and under 5% CO2. After 24h, medium was changed and replaced by different combinations of media containing either: MEMalpha—bFGF 12.5 ng/mL—FBS 2%—P/S 0.1%; MEMalpha—bFGF 12.5 ng/mL—FBS 10%—P/S 0.1%; MEMalpha—FBS 2%—P/S 0.1% (control condition); MEMalpha—FBS 10%—P/S 0.1% (control condition). The cells were placed at 37° C. in a humid environment and under 5% CO2, and medium was changed twice a week. […] thus was changed with: MEMalpha—ATRA […]—FBS 2%—P/S 0.1%; MEMalpha—ATRA 20 μM—FBS 10%—P/S 0.1%; MEMalpha—FBS 2%—P/S 0.1% (control condition); MEMalpha—FBS 10%—P/S 0.1% (control condition). The cells were placed at 37° C. in a humid environment and under 5% CO2. Medium was changed twice a week. On Day 15 (D15), cells were harvested by trypsinization for mRNA extraction or fixed immunocytochemical analysis.

[2] = system: human mesenchymal stem cells (hMSC); assay: Neural differentiation of hMSCs: gene expression by real-time PCR
Procedure: as §1
On Day 0 (D0), hMSC were seeded at a concentration of 3,000 cells/cm^2 in pre-coated 25 cm^2 flasks or 12-well culture plates in complete medium and culture was placed at 37° C. in a humid environment and under 5% CO2. After 24h, medium was changed and replaced by different combinations of media containing either: MEMalpha—bFGF 12.5 ng/mL—FBS 2%—P/S 0.1%; MEMalpha—bFGF 12.5 ng/mL—FBS 10%—P/S 0.1%; MEMalpha—FBS 2%—P/S 0.1% (control condition); MEMalpha—FBS 10%—P/S 0.1% (control condition). The cells were placed at 37° C. in a humid environment and under 5% CO2, and medium was changed twice a week. On Day 8, medium was replaced by medium containing ATRA in the place of bFGF and thus was changed with: MEMalpha—ATRA […]—FBS 2%—P/S 0.1%; MEMalpha—ATRA 20 μM—FBS 10%—P/S 0.1%; MEMalpha—FBS 2%—P/S 0.1% (control condition); MEMalpha—FBS 10%—P/S 0.1% (control condition). The cells were placed at 37° C. in a humid environment and under 5% CO2. Medium was changed twice a week. […]
Total RNA was extracted using RNAeasy total purification kit following instructions of the manufacturer (Qiagen). cDNA were generated using a High-Capacity cDNA Reverse Transcription kit (Applied Biosystems) as described by the manufacturer.
The expression levels of genes (GFAP, Musashi 1, Nestin, Beta3-Tubuline, MAP-2 and GAPDH) were analyzed by real-time PCR using TaqMan gene Expression Master Mix (Applied Biosystems) on the Applied Biosystems 7900 Real time PCR system (Life technologies). Samples were analyzed in triplicates. Data were normalized using the GAPDH gene as an internal control and relative quantification (RQ) of the genes in a sample was determined according to the equation 2^−Δct.

[3] = system: human mesenchymal stem cells (hMSC); assay: Neural differentiation of hMSCs: immunocytochemical analysis (Nestin, MAP-2); details: bFGF; for MAP-2 marker expression (immunocytochemistry staining) / Nestine marker expression (immunocytochemistry staining): 2% FBS, with or without peptide coating (FIG. 8); for Nestine expression (staining intensity): with or without peptide coating, compared to the control condition (FIG. 8)
Procedure: as §1
On Day 0 (D0), hMSC were seeded at a concentration of 3,000 cells/cm^2 in pre-coated 25 cm^2 flasks or 12-well culture plates in complete medium and culture was placed at 37° C. in a humid environment and under 5% CO2. After 24h, medium was changed and replaced by different combinations of media containing either: MEMalpha—bFGF 12.5 ng/mL—FBS 2%—P/S 0.1%; MEMalpha—bFGF 12.5 ng/mL—FBS 10%—P/S 0.1%; MEMalpha—FBS 2%—P/S 0.1% (control condition); MEMalpha—FBS 10%—P/S 0.1% (control condition). The cells were placed at 37° C. in a humid environment and under 5% CO2, and medium was changed twice a week. On Day 8, medium was replaced by medium containing ATRA in the place of bFGF and thus was changed with: MEMalpha—ATRA […]—FBS 2%—P/S 0.1%; MEMalpha—ATRA 20 μM—FBS 10%—P/S 0.1%; MEMalpha—FBS 2%—P/S 0.1% (control condition); MEMalpha—FBS 10%—P/S 0.1% (control condition). The cells were placed at 37° C. in a humid environment and under 5% CO2. Medium was changed twice a week. On Day 15 (D15), cells were harvested by trypsinization for mRNA extraction or fixed immunocytochemical analysis.
Assessment of differentiation was performed by gene expression after extraction of mRNA at various time point (DO, D1, D8 and D15), and immunocytochemical analysis performed at the end of the culture period (D15).
Immunocytochemical analyses were carried out on cells fixed in 4% paraformaldehyde and using standard protocols. After blocking with Triton 1×0.1%/BSA 5% during 30 min, cells were incubated with antibodies directed against Nestin (Millipore) or MAP-2 (Sigma) overnight at +4° C. After washing, appropriate FITC or Cyandidine-5 labelled secondary antibody are added. Nuclei were counterstained with Hoescht 33258 (Sigma). Obervations were performed using Leica TCS LSI system.

[4] = patient no 1, day 5, bFGF 10% without ATRA (FIG. 6)
[5] = patient no 1, bFGF 10% without ATRA (FIG. 6)
[6] = patient no 1, bFGF 10% without ATRA, with respect to J0 (FIG. 6)
[7] = patient no 2, bFGF 10% without ATRA (FIG. 7)
[8] = patient no 2, bFGF 10% without ATRA, with respect to J0 (FIG. 7)

Q: How did the “number of MSC” value ([1]; 2% FBS) turn out when `CC1=C(/C=C/C(C)=C/C=C/C(C)=C/C(=O)O)C(C)(C)CCC1` [ATRA, reference compound] was run?
A: The value was “small difference”.

Q: What about the “number of MSC” value ([1]; 10% FBS) of the same molecule?
A: The value was “decrease”.

Q: Which results are given for “W-S-G-W-S-S-Abu-S-R-S-Nm (WSGWSS[Abu]SRS-NH2; N-terminus assumed; SMILES CC[C@H](NC(=O)[C@H](CO)NC(=O)[C@H](CO)NC(=O)[C@H](Cc1c[nH]c2ccccc12)NC(=O)CNC(=O)[C@H](CO)NC(=O)[C@@H](N)Cc1c[nH]c2ccccc12)C(=O)N[C@@H](CO)C(=O)N[C@@H](CCCNC(=N)N)C(=O)N[C@@H](CO)C(N)=O) [NS640]”?
A: effect on cell proliferation (number of MSCs) [1]: no effect; effect of peptide coating on the increase in Nestin, βIII-Tubulin and MAP-2 gene expression ([2]; bFGF then ATRA, 2% FBS, peptide coating 80 μg/cm2): does not modify this increase; MAP-2 expression ([2]; bFGF then ATRA, 10% FBS, peptide coating, vs ×0.75 without peptide (FIG. 5)): 1.46 ×; Nestin expression ([2]; bFGF then ATRA, 10% FBS, peptide coating, vs ×1.2 without peptide (FIG. 5)): 1.5 ×; Nestin expression [2, 4]: 2 ×; βIII-Tubuline expression ([2]; patient no 2, after 5 days of culture, with bFGF (FIG. 7)): maximized; MAP-2 marker expression (immunocytochemistry staining) [3]: stronger staining; Nestine marker expression (immunocytochemistry staining) [3]: stronger staining; MAP-2 protein presence ([3]; 10% FBS, peptide coating (FIG. 8)): makes possible to observe MAP-2 protein presence; Nestine expression (staining intensity) ([3]; 10% FBS): maximized

Q: Which “effect on cell proliferation (number of MSCs)” value [1] does the source give for “bFGF: growth factor added to the hMSC culture medium at 12.5 ng/mL” here?
A: Its value is “positive effect”.

Q: And the “Induction of gene expression: MAP-2 P2” value ([2]; 2% FBS, Patient no2)?
A: The value was 3.

Q: And the Musashi-1 expression [2, 5]?
A: The Musashi-1 expression was “decrease”.

Q: And the Nestin expression [2, 5]?
A: Its Nestin expression is “decrease”.

Q: What about the “expression of MAP-2” value [2, 6] of the same molecule?
A: Its value is 2.3 ×.

Q: What about the “expression of βIII Tubulin” value [2, 6] of the same molecule?
A: The value was 9.3 ×.

Q: What about the Nestin expression [2, 4] of the same molecule?
A: Its Nestin expression is 0.6 ×.

Q: What about the MAP-2 expression ([2]; patient no 2, D5, with bFGF (FIG. 7)) of the same molecule?
A: Its MAP-2 expression is “decreased”.

Q: And the Musashi-1 expression [2, 7]?
A: The Musashi-1 expression was “decrease”.

Q: What about the Nestin expression [2, 7] of the same molecule?
A: Its Nestin expression is “decrease”.

Q: What about the Nestin expression ([2]; patient no 2, bFGF 10% without ATRA, with or without coating (FIG. 7)) of the same molecule?
A: The Nestin expression was 0.6 ×.

Q: What about the “expression of MAP-2” value [2, 8] of the same molecule?
A: The value was 2.3 ×.

Q: What about the “expression of βIII Tubulin” value [2, 8] of the same molecule?
A: Its value is 9.3 ×.

Q: What about the “MAP-2 marker expression (immunocytochemistry staining)” value [3] of the same molecule?
A: Its value is “increases the expression”.

Q: What about the “Nestine marker expression (immunocytochemistry staining)” value [3] of the same molecule?
A: Its value is “increases the expression”.

Q: And the “Nestine expression (staining intensity)” value ([3]; 10% FBS)?
A: The value was “increases Nestine expression”.
